Test [1] deals with T1, rLHR (Rattus norvegicus, UniProt P16235). The test can be described thus: Reporter gene expression (SEAP, eYFP) of CS/pDADMAC-encapsulated CK04 cells. The class given is cell-based. Set-up: Full-length cDNAs encoding the LHRs of rat (r) and bovine (b) origin; expressed in transfected cells; host or cells: CK04: HEK293T stably cotransfected with pLEN-rLHR and pZeoSV2(+), clone 6. An excerpt:
The SEAP production increased over time in the presence but not the absence of bLH.
To determine whether bLH can penetrate microcapsules and activate the gene expression of encapsulated cells, CK04 cells were transiently transfected with a vector encoding PCRE controlled eYFP expression (pCK91, PCRE-eYFP-pA). After transfection the cells were encapsulated in CS/pDADMAC-microcapsules and cultured in the absence or presence of bLH. […] In contrast in the absence of bLH the cells remained non-fluorescent. […] It was also investigated if the activation of encapsulated cells is bLH dose- and time-dependent. Therefore, CK04 cells transiently transfected for PCRE dependent SEAP expression (pCK62, PCRE-SEAP-PA) were encapsulated, the capsules cultured in the absence or presence of 100 ng/ml or 500 ng/ml bLH and the SEAP expression measured in 12 hours intervals (FIG. 11). […] 60 hours post-induction a 2.3±0.2 fold higher SEAP expression for LH-surge doses of bLH compared to 100 ng/ml hormone was measured. […]
The intracellular cAMP production of cells was quantified using the cAMP Fluorescence Polarization (FP) Biotrak Immunoassay System (GE Healthcare Bio-Sciences GmbH, Otelfingen, Switzerland, Cat No. RPN3595) according to the manufacturer's protocol. The expression of firefly luciferase was determined with the Tropix Luciferase Assay Kit (Applied Biosystems, Bedford, USA, Cat No. BC100L). […]
(In a reporter assay the amount or activity of a reporter protein is the signal.)

The target of test [2] is T1, rLHR. The test can be described thus: bLH-dependent luciferase expression in stable rLHR clone 6 (CK04). Type of test: cell-based. Set-up: Full-length cDNAs encoding the LHRs of rat (r) and bovine (b) origin; expressed in transfected cells; host or cells: CK04: HEK293T stably cotransfected with pLEN-rLHR and pZeoSV2(+), clone 6. The settings on record: clone 6, 500 ng/ml bLH, pCRE-Luc. The protocol: HEK293T cells were cotransfected with pLEN-LHR and pZeoSV2. After clonal expansion several single clones were transiently transfected with pCRE-Luc and screened for the functional expression of rLHR by their ability to respond to bLH. […] (□) no bLH; (▪) 500 ng/ml bLH. Luciferase expression was expressed as relative light units (RLU).
Functional expression of LHRs on the cell surface results in the stimulation of PKA and an increase of intracellular cAMP in response to bLH. It was evaluated whether the activated LHR-signaling may induce a PKA-responsive promoter. […] 24 hours post-transfection the cells were induced by bLH and the SEAP expression was determined over time. […] In comparing rLHR- and bLHR-expressing cells a 3-fold increase in maximal SEAP expression in response to bLH of the rLHR over the bLHR was detected. […]
The intracellular cAMP production of cells was quantified using the cAMP Fluorescence Polarization (FP) Biotrak Immunoassay System (GE Healthcare Bio-Sciences GmbH, Otelfingen, Switzerland, Cat No. RPN3595) according to the manufacturer's protocol. The expression of firefly luciferase was determined with the Tropix Luciferase Assay Kit (Applied Biosystems, Bedford, USA, Cat No. BC100L). […] Enhanced YFP-expression was detected by fluorescence microscopy (Leica Microsystems, Wetzlar, Germany)

T1 sequence (P16235 27-700): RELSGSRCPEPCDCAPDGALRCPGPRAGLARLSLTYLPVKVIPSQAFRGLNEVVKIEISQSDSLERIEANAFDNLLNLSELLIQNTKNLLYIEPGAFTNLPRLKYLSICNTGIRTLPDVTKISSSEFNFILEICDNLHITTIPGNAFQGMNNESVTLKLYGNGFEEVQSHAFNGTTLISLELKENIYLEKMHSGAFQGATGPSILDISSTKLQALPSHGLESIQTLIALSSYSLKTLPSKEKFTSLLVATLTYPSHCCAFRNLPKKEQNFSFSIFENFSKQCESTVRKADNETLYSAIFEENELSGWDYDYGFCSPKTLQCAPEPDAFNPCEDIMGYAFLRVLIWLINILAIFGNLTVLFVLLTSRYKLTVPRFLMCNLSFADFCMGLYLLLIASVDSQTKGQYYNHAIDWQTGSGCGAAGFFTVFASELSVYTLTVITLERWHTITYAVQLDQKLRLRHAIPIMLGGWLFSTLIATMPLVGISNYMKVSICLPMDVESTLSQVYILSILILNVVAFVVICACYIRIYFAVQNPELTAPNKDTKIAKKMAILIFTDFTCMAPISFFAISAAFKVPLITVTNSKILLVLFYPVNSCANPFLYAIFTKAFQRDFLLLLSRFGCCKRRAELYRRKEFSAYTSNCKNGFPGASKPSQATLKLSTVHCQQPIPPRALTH

Consider bovine luteinizing hormone [bLH], for which the “SEAP expression for LH-surge doses of bLH compared to 100 ng/ml” value in test [1] (encapsulated CK04, pCK62, 60 hours post-induction, 500 ng/ml vs 100 ng/ml) was 2.3±0.2 fold. Moreover, in test [1] (encapsulated CK04, pCK91, bLH present), the “eYFP expression of encapsulated cells” value was “strongly induced”. In test [2], the “induction of luciferase expression in response to bLH” value worked out at 17.0±0.2 fold.

Values taken from patent US8506950B2, “Degradable microcapsules” (ETH Zurich, priority 2008, dated 2013).
